# Measured values as given in PubChem BioAssay (NCI).
#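 Step 1: Grow cells in 96-well plates. Step 2: Expose to compound for 48 hours at 5 concentrations. Step 3: Interpolate endpoints linearly; if unreached, use highest concentration. At the TGI there is no net growth.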 Where a SMILES comes first, the peptide text is derived from it. [ ]: non-standard residue; d: D form. The star is where a group is joined. ξ: configuration not given here. ξF = NC(Cc1ccccc1)C(=O)O; Cbz = O=C(OCc1ccccc1)*
# Columns and labels:
# Experiment in all cases: growth of human tumour cells (NCI), 48 h
# [1] = system: HT29 colon
# [2] = system: CCRF-CEM leukemia
# [3] = system: EKVX NSCLC
# [4] = system: MDA-MB-435
# [5] = system: HS 578T breast
# [6] = system: NCI-H460 lung
# [7] = system: OVCAR-5 ovarian
# [8] = system: RXF 393 renal
# [9] = system: 786-0 renal
# [10] = system: PC-3 prostate
# [11] = system: RPMI-8226 leukemia
# [12] = system: CAKI-1 renal
# [13] = system: BT-549 breast
Compound,TGI [1] [µM],TGI [2] [µM],TGI [3] [µM],TGI [4] [µM],TGI [5] [µM],TGI [6] [µM],TGI [7] [µM],TGI [8] [µM],TGI [9] [µM],TGI [10] [µM],TGI [11] [µM],TGI [12] [µM],TGI [13] [µM]
Cc1nc2c(sc3nc4c(cc32)CCC4)c(=O)o1,> 100,> 88.9,> 100,99.3,> 100,> 100,> 100,> 100,> 100,> 100,> 88.3,> 100,
CC(=O)OC1COC(N2CCc3cc([N+](=O)[O-])ccc32)C(OC(C)=O)C1OC(C)=O (stereo not drawn),> 100,> 100,> 100,,,> 100,,> 100,> 100,,> 100,> 100,
C[C@@H]1CC[C@]2(C)C3(C)CC[C@]2(OC3=O)[C@@]12CC(c1ccoc1)OC2=O (stereo partly drawn),> 100,65.9,> 100,56.4,> 100,> 100,78.4,46.9,40.7,> 100,77.5,72.6,
COC(=O)C1CCC(=O)N1CN(C(C)=O)c1cccc(O)c1 (stereo not drawn),> 100,,> 100,> 100,> 100,> 100,> 100,> 100,> 100,> 100,> 100,> 100,
NNC(=O)C(=O)NN=C(C(Cl)(Cl)CO)C(Cl)(Cl)CO,> 100,61.2,> 100,,,> 100,92.2,72.7,> 100,,> 100,97.4,
CCOC(=O)/C(=C/c1ccccn1)C(=O)c1ccccc1,30.4,> 31,42.8,,,> 62.8,33.5,24.2,25.9,,13.2,27.9,
O=C(c1ccccc1)C1(Br)S(=O)(=O)OCCOS1(=O)=O,> 100,> 100,> 100,,,> 100,> 100,> 100,> 100,,> 100,,
NNc1nnc(CCCCCCCCc2nnc(NN)n2N)n1N,> 100,> 100,> 100,> 100,,> 100,> 100,> 100,> 100,> 100,,> 100,90.3
Clc1ccc(C=Nc2ccc(Oc3ccc(Cl)cc3)c(Cl)c2)cc1,55,59.7,70.2,82.5,51.4,44.5,> 100,,36.1,69.8,> 100,86.2,53.3
CCOC(=O)CNC(=O)C(Cc1ccccc1)NC(=O)OCc1ccccc1 (stereo not drawn) (Cbz-[ξF]-Gly-OEt),> 100,> 100,> 100,> 100,> 100,> 100,> 100,,> 100,> 100,> 100,,> 100
COc1ccc2ccccc2c1C1=NC(C)(C)CO1,> 100,> 100,> 100,,,> 100,,> 100,> 100,,> 100,> 100,
CC1(C)O[C@@H]2[C@@H](COC(C)(C)O[C@H]2C2SCCCS2)O1,> 100,,,> 100,,> 100,> 100,> 100,> 100,> 100,> 100,> 100,
COc1ccc(-c2c(C3=NCCCN3)nnn2-c2ccccc2)cc1,> 100,> 100,> 100,,,> 100,> 100,> 100,> 100,,> 100,> 100,
O=C(O)CCCc1ccc2c(c1)CC1(C2)Cc2cc3c(cc2C1)CCCC3,30.4,27.9,> 100,38,> 100,,41.3,> 100,58.6,66.8,53.2,,
C1CCC(N=C2N(C3CCCCC3)C(=NC3CCCCC3)N2C2CCCCC2)CC1,> 100,> 100,> 100,,,> 100,> 100,> 100,> 100,,> 100,,
Cn1c2ccccc2c(=O)c2c(O)cc3c(c21)C1OCC(C)(O)C1O3 (stereo not drawn),> 100,> 100,> 100,> 100,37.5,,> 100,69,> 100,> 100,> 100,> 100,
C1CSCCSCCCS[C@@H]2CCCCC2SC1 (stereo partly drawn),> 100,88.7,> 100,,,> 100,> 100,> 100,> 100,,52.6,> 100,
Cc1c(C)c(S(=O)(=O)N(CCCCN)OCCCN)c(C)c2c1OC(C)(C)CC2,40.4,98.3,31.9,45.1,36.1,41.2,34.7,,31.9,23.3,66.5,> 100,
CC(N)(CC(O)(C(F)(F)Cl)C(F)(F)Cl)C(=O)O (stereo not drawn),> 10,> 10,> 10,> 10,> 10,> 10,> 10,,> 10,> 10,,> 10,> 10
Cc1cc2nc3c(C#N)c(-c4ccccc4)/c(=C\Nc4ccc(F)cc4)c(=O)n3c2cc1C,,> 100,> 100,> 100,,> 100,> 100,> 100,> 100,> 100,> 100,> 100,> 100
O=C1CC(c2ccc(Cl)cc2)=Nc2ccccc2N1,> 100,41.9,> 100,,,> 100,> 100,61.4,> 100,,,> 100,
